Measured values from ChEMBL document CHEMBL4321854, “Discovery of a First-in-Class Mitogen-Activated Protein Kinase Kinase 1/2 Degrader” (J Med Chem, 2019).
The source made the active and inactive calls.

Legend:
[1] = Ratio of Plasma concentration in Swiss albino mouse at 50 mg/kg, ip measured after 8 hrs to GI50 for antiproliferative activity against human HT-29 cells; type: organism-based; settings: in vivo
[2] = molecular target: T1, von Hippel-Lindau disease tumor suppressor/Dual specificity mitogen-activated protein kinase kinase 2 (Homo sapiens) (UniProt P36507+P40337); assay: (§1) Protac activity against VHL/MEK2 in human HT-29 cells harboring BRAF V600E variant assessed as degradation of MEK2 after 24 hrs by Western blot analysis; type: cell-based
[3] = molecular target: T2, von Hippel-Lindau disease tumor suppressor/Dual specificity mitogen-activated protein kinase kinase 2 (Homo sapiens, UniProt P36507+P40337, V600E); assay: as §1; type: cell-based
[4] = Plasma concentration in Swiss albino mouse at 50 mg/kg, ip measured after 8 hrs by LC-MS/MS analysis; type: ADME, organism-based
HT-29 = assay: Effect on total ERK protein expression in human HT-29 cells at 0.001 to 5 uM after 24 hrs by Western blot analysis; type: functional, cell-based
[5] = molecular target: T1, von Hippel-Lindau disease tumor suppressor/Dual specificity mitogen-activated protein kinase kinase 2 (Homo sapiens); assay: Protac activity against VHL/MEK2 in human HT-29 cells harboring with BRAF V600E variant assessed as degradation of MEK2 by measuring reduction in MEK2 protein level at 0.1 uM after 10 hrs by LC-MS based Volcano plot analysis; type: cell-based
[6] = molecular target: T1, von Hippel-Lindau disease tumor suppressor/Dual specificity mitogen-activated protein kinase kinase 2 (Homo sapiens); assay: (§2) Protac activity against VHL/MEK2 in human HT-29 cells harboring with BRAF V600E variant assessed as degradation of MEK2 by measuring MEK2 protein level at 0.3 uM pretreated with proteasome inhibitor, MG-132 for 2 hrs followed by incubation with compound for 10 hrs by Western blot analysis; type: cell-based
[7] = molecular target: T3, von Hippel-Lindau disease tumor suppressor/Cullin-9 (Homo sapiens) (UniProt P40337+Q8IWT3); assay: Protac activity against VHL/cullin9 in human HT-29 cells harboring with BRAF V600E variant assessed as cullin9 protein level at 0.1 uM after 10 hrs by Western blot analysis; type: cell-based
[8] = molecular target: T4, von Hippel-Lindau disease tumor suppressor/Dual specificity mitogen-activated protein kinase kinase 2/Dual specificity mitogen-activated protein kinase kinase 1 (Homo sapiens) (UniProt P36507+Q02750+P40337); assay: Protac activity against VHL/MEK1/2 in human SK-MEL-28 cells harboring with BRAF V600E variant assessed as reduction in phosphorylation of ERK at T202/Y204 residues after 24 hrs by Western blot analysis; type: cell-based
[9] = molecular target: T5, von Hippel-Lindau disease tumor suppressor/Dual specificity mitogen-activated protein kinase kinase 1 (Homo sapiens) (UniProt Q02750+P40337); assay: Protac activity against VHL/MEK1 in human SK-MEL-28 cells harboring with BRAF V600E variant assessed as degradation of MEK1 at 0.1 to 0.3 uM by Western blot analysis; type: cell-based; settings: TDE = time-dependent effect
[10] = molecular target: von Hippel-Lindau disease tumor suppressor/Dual specificity mitogen-activated protein kinase kinase 1 (Homo sapiens, UniProt Q02750+P40337, V600E); assay: (§3) Protac activity against VHL/MEK1 in human HT-29 cells harboring BRAF V600E variant assessed as degradation of MEK1 after 24 hrs by Western blot analysis; type: cell-based
[11] = molecular target: T5, von Hippel-Lindau disease tumor suppressor/Dual specificity mitogen-activated protein kinase kinase 1 (Homo sapiens); assay: as §3; type: cell-based
SK-MEL-28 = assay: Effect on total ERK protein expression in human SK-MEL-28 cells at 0.001 to 5 uM after 24 hrs by Western blot analysis; type: functional, cell-based
COLO 205 [12] = assay: Effect on total ERK protein expression in human COLO205 cells at 0.001 to 5 uM after 24 hrs by Western blot analysis; type: functional, cell-based
[13] = molecular target: T4, von Hippel-Lindau disease tumor suppressor/Dual specificity mitogen-activated protein kinase kinase 2/Dual specificity mitogen-activated protein kinase kinase 1 (Homo sapiens); assay: Protac activity against VHL/MEK1/2 in human SK-MEL-28 cells harboring with BRAF V600E variant assessed as reduction in phosphorylation of ERK at T202/Y204 residues at 0.1 to 0.3 uM by Western blot analysis; type: cell-based; settings: TDE = time-dependent effect
[14] = molecular target: T1, von Hippel-Lindau disease tumor suppressor/Dual specificity mitogen-activated protein kinase kinase 2 (Homo sapiens); assay: (§4) Protac activity against VHL/MEK2 in human SK-MEL-28 cells harboring BRAF V600E variant assessed as degradation of MEK2 after 24 hrs by Western blot analysis; type: cell-based
[15] = molecular target: T2, von Hippel-Lindau disease tumor suppressor/Dual specificity mitogen-activated protein kinase kinase 2; assay: as §4; type: cell-based
[16] = molecular target: T3, von Hippel-Lindau disease tumor suppressor/Cullin-9 (Homo sapiens); assay: Protac activity against VHL/cullin9 in human HT-29 cells harboring with BRAF V600E variant assessed as reduction in Cullin9 protein level at 0.1 uM after 10 hrs by LC-MS based Volcano plot analysis; type: cell-based
[17] = molecular target: T4, von Hippel-Lindau disease tumor suppressor/Dual specificity mitogen-activated protein kinase kinase 2/Dual specificity mitogen-activated protein kinase kinase 1 (Homo sapiens); assay: Protac activity against VHL/MEK1/2 in human SK-MEL-28 cells harboring with BRAF V600E variant assessed as phosphorylation of ERK at T202/Y204 residues at 0.3 uM pretreated with proteasome inhibitor, MG-132 for 2 hrs followed by incubation with compound for 10 hrs by Western blot analysis; type: cell-based
[18] = molecular target: T1, von Hippel-Lindau disease tumor suppressor/Dual specificity mitogen-activated protein kinase kinase 2 (Homo sapiens); assay: Protac activity against VHL/MEK2 in human UACC257 cells harboring with BRAF V600E variant assessed as degradation of MEK2 at 3 to 5 uM after 24 hrs by Western blot analysis; type: cell-based
UACC-257 = assay: Antiproliferative activity against human UACC257 cells assessed as reduction in cell growth after 3 days by MTT assay; type: functional
[19] = molecular target: T5, von Hippel-Lindau disease tumor suppressor/Dual specificity mitogen-activated protein kinase kinase 1 (Homo sapiens); assay: Protac activity against VHL/MEK1 in human HT-29 cells harboring with BRAF V600E variant assessed as degradation of MEK1 at 0.1 to 0.3 uM by Western blot analysis; type: cell-based; settings: TDE = time-dependent effect
[20] = molecular target: T4, von Hippel-Lindau disease tumor suppressor/Dual specificity mitogen-activated protein kinase kinase 2/Dual specificity mitogen-activated protein kinase kinase 1 (Homo sapiens); assay: Protac activity against VHL/MEK1/2 in human SK-MEL-28 cells harboring with BRAF V600E variant assessed as reduction in phosphorylation of MEK at S218/222 residues at 0.1 to 0.3 after >= 2 hrs by Western blot analysis; type: cell-based
[21] = molecular target: T4, von Hippel-Lindau disease tumor suppressor/Dual specificity mitogen-activated protein kinase kinase 2/Dual specificity mitogen-activated protein kinase kinase 1 (Homo sapiens); assay: Protac activity against VHL/MEK1/2 in human SK-MEL-28 cells harboring with BRAF V600E variant assessed as phosphorylation of MEK at S218/222 residues at 0.3 uM pretreated with MEK1/2 inhibitor, PD0325901 for 2 hrs followed by incubation with compound for 2 hrs by Western blot analysis; type: cell-based
[22] = molecular target: T1, von Hippel-Lindau disease tumor suppressor/Dual specificity mitogen-activated protein kinase kinase 2 (Homo sapiens); assay: Protac activity against VHL/MEK2 in human SK-MEL-28 cells harboring with BRAF V600E variant assessed as degradation of MEK2 by measuring MEK2 protein level at 0.3 uM pretreated with MEK1/2 inhibitor, PD0325901 for 2 hrs followed by incubation with compound for 10 hrs by Western blot analysis; type: cell-based
[23] = molecular target: T4, von Hippel-Lindau disease tumor suppressor/Dual specificity mitogen-activated protein kinase kinase 2/Dual specificity mitogen-activated protein kinase kinase 1 (Homo sapiens); assay: Protac activity against VHL/MEK1/2 in human HT-29 cells harboring with BRAF V600E variant assessed as phosphorylation of ERK at T202/Y204 residues at 0.3 uM pretreated with VHL ligand, VH 032 for 2 hrs followed by incubation with compound for 10 hrs by Western blot analysis; type: cell-based
[24] = molecular target: T5, von Hippel-Lindau disease tumor suppressor/Dual specificity mitogen-activated protein kinase kinase 1 (Homo sapiens); assay: as §2, with “VHL/MEK1” for “VHL/MEK2”, “MEK1” for “MEK2”, “NEDD8-activating enzyme” for “proteasome”, “MLN4924” for “MG-132”; type: cell-based
[25] = molecular target: T5, von Hippel-Lindau disease tumor suppressor/Dual specificity mitogen-activated protein kinase kinase 1 (Homo sapiens); assay: Protac activity against VHL/MEK1 in human HT-29 cells harboring with BRAF V600E variant assessed as degradation of MEK1 at 3 to 5 uM after 24 hrs by Western blot analysis; type: cell-based
COLO 205 [26] = assay: Antiproliferative activity against human COLO205 cells assessed as reduction in cell growth after 3 days by WST8 assay; type: functional

T4 sequence (P36507 whole entry, looked up): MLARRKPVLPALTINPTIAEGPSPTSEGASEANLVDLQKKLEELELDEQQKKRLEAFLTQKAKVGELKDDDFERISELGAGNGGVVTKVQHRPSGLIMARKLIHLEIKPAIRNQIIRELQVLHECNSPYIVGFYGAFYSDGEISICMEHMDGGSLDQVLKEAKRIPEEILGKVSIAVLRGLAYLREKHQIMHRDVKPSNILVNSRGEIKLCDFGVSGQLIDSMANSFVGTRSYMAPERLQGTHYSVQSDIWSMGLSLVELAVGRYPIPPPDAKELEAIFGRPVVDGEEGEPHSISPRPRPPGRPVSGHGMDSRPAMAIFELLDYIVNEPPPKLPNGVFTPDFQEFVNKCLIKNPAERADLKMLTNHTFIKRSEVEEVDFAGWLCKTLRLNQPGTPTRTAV
T4 sequence (P40337 whole entry, looked up): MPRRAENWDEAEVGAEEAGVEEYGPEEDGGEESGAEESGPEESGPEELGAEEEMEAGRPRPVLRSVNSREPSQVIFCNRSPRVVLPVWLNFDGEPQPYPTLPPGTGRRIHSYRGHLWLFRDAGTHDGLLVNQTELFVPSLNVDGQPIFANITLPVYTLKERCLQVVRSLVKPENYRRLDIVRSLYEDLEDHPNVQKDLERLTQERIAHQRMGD
T4 sequence (Q02750 whole entry, looked up): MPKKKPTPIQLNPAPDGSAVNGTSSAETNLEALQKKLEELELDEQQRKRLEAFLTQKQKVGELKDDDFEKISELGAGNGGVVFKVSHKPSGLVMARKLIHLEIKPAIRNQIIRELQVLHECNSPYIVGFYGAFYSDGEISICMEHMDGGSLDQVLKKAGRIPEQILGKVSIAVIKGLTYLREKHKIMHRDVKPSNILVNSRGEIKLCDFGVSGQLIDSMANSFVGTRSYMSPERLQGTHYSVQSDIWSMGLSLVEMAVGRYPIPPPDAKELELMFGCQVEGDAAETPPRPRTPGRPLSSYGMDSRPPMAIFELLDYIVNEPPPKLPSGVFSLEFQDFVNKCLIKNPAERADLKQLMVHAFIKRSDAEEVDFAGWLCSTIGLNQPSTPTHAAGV
T1 sequence (P36507 whole entry, looked up): as the sequence (P36507 whole entry, looked up) above
T1 sequence (P40337 whole entry, looked up): as the sequence (P40337 whole entry, looked up) above
T5 sequence (P40337 whole entry, looked up): as above
T5 sequence (Q02750 whole entry, looked up): as the sequence (Q02750 whole entry, looked up) above
T2 sequence (P36507 whole entry, looked up, stated change not applied): as the sequence (P36507 whole entry, looked up) above
T2 sequence (P40337 whole entry, looked up, stated change not applied): as the sequence (P40337 whole entry, looked up) above
T3 sequence (P40337 whole entry, looked up): as above
T3 sequence (Q8IWT3 whole entry, looked up): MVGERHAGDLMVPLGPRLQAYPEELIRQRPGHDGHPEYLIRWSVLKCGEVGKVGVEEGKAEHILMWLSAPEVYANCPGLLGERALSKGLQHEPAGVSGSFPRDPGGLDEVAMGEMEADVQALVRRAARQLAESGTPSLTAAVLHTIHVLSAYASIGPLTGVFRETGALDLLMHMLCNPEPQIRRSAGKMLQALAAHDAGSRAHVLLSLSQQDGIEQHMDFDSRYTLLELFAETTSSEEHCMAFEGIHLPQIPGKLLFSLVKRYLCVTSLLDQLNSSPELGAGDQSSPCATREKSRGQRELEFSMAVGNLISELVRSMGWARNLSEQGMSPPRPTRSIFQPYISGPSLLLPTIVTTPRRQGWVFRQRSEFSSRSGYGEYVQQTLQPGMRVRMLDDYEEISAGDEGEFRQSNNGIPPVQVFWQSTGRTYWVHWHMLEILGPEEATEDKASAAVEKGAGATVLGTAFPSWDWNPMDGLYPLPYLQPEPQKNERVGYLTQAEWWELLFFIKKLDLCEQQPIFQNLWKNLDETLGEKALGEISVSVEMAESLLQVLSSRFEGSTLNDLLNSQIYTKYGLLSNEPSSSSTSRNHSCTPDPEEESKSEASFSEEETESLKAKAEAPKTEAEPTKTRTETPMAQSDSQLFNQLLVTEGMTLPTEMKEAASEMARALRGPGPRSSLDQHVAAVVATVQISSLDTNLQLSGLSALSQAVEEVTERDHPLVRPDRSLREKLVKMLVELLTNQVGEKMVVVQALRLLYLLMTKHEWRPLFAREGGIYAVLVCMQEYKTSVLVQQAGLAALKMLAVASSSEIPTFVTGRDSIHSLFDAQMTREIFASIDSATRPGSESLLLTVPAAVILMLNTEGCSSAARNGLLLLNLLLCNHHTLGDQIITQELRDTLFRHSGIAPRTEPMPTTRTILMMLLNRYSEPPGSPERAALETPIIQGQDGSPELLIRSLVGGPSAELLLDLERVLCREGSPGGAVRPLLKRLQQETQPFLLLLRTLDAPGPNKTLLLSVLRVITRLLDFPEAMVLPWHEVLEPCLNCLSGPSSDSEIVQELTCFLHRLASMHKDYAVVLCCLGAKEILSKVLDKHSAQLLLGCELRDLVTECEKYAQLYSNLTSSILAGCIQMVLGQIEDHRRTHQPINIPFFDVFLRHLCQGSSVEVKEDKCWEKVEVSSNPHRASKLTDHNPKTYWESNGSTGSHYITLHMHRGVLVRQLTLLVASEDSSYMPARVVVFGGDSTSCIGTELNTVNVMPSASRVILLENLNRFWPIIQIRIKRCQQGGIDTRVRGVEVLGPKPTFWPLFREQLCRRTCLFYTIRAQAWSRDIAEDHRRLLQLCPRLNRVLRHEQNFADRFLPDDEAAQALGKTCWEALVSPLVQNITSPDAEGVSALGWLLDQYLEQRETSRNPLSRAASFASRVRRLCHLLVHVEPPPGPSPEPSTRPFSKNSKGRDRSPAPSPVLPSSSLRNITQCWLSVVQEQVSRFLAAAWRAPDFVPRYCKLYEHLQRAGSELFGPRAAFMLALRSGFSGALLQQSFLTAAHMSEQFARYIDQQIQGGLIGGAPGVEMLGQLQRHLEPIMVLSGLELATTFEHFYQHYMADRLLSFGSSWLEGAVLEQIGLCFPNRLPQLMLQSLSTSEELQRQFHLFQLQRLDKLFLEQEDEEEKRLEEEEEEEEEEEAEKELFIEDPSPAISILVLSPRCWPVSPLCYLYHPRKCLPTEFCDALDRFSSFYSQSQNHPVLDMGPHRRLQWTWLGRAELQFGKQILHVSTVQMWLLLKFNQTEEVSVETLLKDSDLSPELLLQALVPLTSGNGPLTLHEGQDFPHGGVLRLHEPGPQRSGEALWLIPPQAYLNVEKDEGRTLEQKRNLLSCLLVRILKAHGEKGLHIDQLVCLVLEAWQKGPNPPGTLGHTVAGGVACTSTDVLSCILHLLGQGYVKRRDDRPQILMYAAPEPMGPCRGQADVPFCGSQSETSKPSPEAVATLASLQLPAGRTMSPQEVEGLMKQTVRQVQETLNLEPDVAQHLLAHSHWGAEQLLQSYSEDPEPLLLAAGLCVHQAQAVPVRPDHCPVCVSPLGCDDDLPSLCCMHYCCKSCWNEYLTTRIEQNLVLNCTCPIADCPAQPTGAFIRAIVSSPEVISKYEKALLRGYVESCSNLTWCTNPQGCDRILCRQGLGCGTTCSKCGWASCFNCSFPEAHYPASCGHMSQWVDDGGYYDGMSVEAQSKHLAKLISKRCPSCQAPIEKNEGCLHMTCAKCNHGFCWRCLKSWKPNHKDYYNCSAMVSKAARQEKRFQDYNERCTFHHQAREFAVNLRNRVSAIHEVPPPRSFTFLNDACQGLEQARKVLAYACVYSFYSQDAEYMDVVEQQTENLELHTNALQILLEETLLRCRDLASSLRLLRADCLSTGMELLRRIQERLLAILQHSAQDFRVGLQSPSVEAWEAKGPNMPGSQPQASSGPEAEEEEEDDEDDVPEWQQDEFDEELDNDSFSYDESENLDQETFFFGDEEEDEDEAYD

Cc1ncsc1-c1ccc([C@H](C)NC(=O)[C@@H]2C[C@@H](O)CN2C(=O)[C@@H](NC(=O)CCCCCCCCCCNCCCONC(=O)c2ccc(F)c(F)c2Nc2ccc(I)cc2F)C(C)(C)C)cc1
31 nM: DC50 [10]
3 to 20: Ratio [1]
30 to 200 nM: GI50 (UACC-257; UACC-257, 72 h) | GI50 (COLO 205 [26]; COLO 205, 72 h)
17 nM: DC50 [3]
9.3 nM: DC50 [15]
active: Activity [2] Dose-dependent effect | Activity [5] | Activity [8] Dose-dependent effect | Activity [9] Tde | Activity [11] Dose-dependent effect | Activity [13] Tde | Activity [14] Dose-dependent effect | Activity [16] | Activity [18] | growth inhibition (GI) (UACC-257) Dose-dependent effect | Activity [19] Tde | Activity [20] | Activity [25] | growth inhibition (GI) (COLO 205 [26]) Dose-dependent effect
inactive: Activity (HT-29) | Activity [6] | Activity [7] | Activity (SK-MEL-28) | Activity (COLO 205 [12]) | Activity [17] | Activity [21] | Activity [22] | Activity [23] | Activity [24]
710 nM: concentration at 8 h [4]
